The numbers were not newly measured in US8580852B2, “2-oxamide inhibitors of phospholipase A2 activity and cellular arachidonate release based on dipeptides and pseudopeptides” (The Regents of the University of California, priority 2009, dated 2013), which cites them from elsewhere.

Marks after values point to notes of the source that are not given here.

Data set [1] has as its target T1, GIVA cPLA2 (Homo sapiens, UniProt P47712).
T1 sequence (P47712 1-749): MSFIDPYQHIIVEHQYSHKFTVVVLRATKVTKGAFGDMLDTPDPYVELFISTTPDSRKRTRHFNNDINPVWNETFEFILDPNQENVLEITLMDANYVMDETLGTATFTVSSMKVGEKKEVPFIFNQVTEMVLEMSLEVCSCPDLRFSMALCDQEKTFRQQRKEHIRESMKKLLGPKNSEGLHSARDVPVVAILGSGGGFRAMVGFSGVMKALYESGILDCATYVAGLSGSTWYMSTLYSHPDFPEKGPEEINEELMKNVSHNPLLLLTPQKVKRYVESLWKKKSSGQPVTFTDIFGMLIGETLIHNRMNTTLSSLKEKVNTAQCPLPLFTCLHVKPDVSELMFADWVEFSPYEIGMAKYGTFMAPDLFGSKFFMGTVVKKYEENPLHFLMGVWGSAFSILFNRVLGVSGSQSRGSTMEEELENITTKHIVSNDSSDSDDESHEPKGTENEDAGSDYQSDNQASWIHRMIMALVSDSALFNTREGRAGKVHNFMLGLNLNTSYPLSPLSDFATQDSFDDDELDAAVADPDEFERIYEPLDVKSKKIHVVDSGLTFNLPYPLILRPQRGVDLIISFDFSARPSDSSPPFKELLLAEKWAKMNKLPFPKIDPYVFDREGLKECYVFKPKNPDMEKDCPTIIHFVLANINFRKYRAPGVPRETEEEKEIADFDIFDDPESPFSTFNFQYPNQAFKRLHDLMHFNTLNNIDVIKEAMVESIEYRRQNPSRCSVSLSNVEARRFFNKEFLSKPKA
Conditions: cited from earlier work; for Inhibition of GIVA cPLA2 (in words): in vitro, inhibitors previously reported, also inhibit GVIA iPLA2 and GV sPLA2.

Data set [2] deals with T2, GVIA iPLA2 (Homo sapiens, UniProt O60733).
T2 sequence (O60733 1-806): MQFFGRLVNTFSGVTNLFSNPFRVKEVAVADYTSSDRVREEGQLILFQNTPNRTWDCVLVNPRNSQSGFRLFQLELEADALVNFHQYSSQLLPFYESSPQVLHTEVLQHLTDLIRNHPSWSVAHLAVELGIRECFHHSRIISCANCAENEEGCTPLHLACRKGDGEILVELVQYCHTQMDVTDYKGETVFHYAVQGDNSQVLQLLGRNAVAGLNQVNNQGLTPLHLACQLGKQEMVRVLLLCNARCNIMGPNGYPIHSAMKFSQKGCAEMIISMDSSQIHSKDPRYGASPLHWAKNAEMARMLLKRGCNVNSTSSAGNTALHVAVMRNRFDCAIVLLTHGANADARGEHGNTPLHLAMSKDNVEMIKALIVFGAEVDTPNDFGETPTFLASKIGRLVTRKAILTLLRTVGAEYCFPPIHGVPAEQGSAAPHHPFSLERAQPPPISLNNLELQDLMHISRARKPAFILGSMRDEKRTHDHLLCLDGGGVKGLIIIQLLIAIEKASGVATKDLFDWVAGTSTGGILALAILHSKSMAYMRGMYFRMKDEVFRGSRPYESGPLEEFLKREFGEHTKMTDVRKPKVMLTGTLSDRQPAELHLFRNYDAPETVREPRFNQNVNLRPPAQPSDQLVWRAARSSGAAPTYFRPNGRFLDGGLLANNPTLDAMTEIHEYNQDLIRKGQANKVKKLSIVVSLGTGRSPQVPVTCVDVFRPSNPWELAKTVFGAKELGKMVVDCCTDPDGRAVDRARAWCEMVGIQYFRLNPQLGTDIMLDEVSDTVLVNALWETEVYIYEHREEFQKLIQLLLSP
Conditions: reference inhibitors; data taken from ref 15; cited from earlier work.

Take `CCNC(=O)OC[C@@H](CCC(=O)OC)NC(=O)C(=O)CC` [Compound 23]: the “Inhibition of GIVA cPLA2 (in words)” value in data set [1] is given as “inhibit GIVA cPLA2 to a high extent, though not selectively”.

Take `CCC[C@@H](CCC(=O)OC)NC(=O)C(=O)CC` [Compound 27]: the “Inhibition of GIVA cPLA2 (in words)” value in data set [1] is on record as “inhibit GIVA cPLA2 to a high extent, though not selectively”.

As for `CCCCCCCCCCCCCCC(=O)C(=O)NCCCC(=O)OCC` [AX048, reference compound], the “GVIA iPLA2 X1(50)” value in data set [2] was 0.027 ± 0.009^b mole fraction. The “GIVA cPLA2 X1(50)” value in data set [1] (reference inhibitors, data taken from ref 15) is listed as 0.022 ± 0.009^b mole fraction.

For the molecule `CCC[C@@H](/C=C/C(=O)OC)NC(=O)C(=O)CC` [Compound 29], the “Inhibition of GIVA cPLA2 (in words)” value in data set [1] is “inhibit GIVA cPLA2 to a high extent, though not selectively”.
